How the values were obtained:
IGF1R = IGF1R (Homo sapiens (Human), UniProt P08069); experiment: Kinome-wide profiling; assay type: biochemical; conditions: read-out: % Residual Activity (mean)
MLK2/MAP3K10 = MLK2/MAP3K10 (Homo sapiens (Human), UniProt Q02779); experiment: Kinome-wide profiling; assay type: biochemical; conditions: read-out: % Residual Activity (mean)
DMPK2 = DMPK2 (Homo sapiens (Human), UniProt Q6DT37); experiment: Kinome-wide profiling; assay type: biochemical; conditions: read-out: % Residual Activity (mean)
PKCa = PKCa (Homo sapiens (Human), UniProt P17252); experiment: Kinome-wide profiling; assay type: biochemical; conditions: read-out: % Residual Activity (mean)
NEK7 = NEK7 (Homo sapiens (Human), UniProt Q8TDX7); experiment: Kinome-wide profiling; assay type: biochemical; conditions: read-out: % Residual Activity (mean)
Aurora A = Aurora A (Homo sapiens (Human), UniProt O14965); experiment: Kinome-wide profiling; assay type: biochemical; conditions: read-out: % Residual Activity (mean)
EPHA2 = EPHA2 (Homo sapiens (Human), UniProt P29317); experiment: Kinome-wide profiling; assay type: biochemical; conditions: read-out: % Residual Activity (mean)
CK1g2 = CK1g2 (Homo sapiens (Human), UniProt P78368); experiment: Kinome-wide profiling; assay type: biochemical; conditions: read-out: % Residual Activity (mean)
STK32B/YANK2 = STK32B/YANK2 (Homo sapiens (Human), UniProt Q9NY57); experiment: Kinome-wide profiling; assay type: biochemical; conditions: read-out: % Residual Activity (mean)
Sequence of STK32B/YANK2 (Q9NY57 whole entry): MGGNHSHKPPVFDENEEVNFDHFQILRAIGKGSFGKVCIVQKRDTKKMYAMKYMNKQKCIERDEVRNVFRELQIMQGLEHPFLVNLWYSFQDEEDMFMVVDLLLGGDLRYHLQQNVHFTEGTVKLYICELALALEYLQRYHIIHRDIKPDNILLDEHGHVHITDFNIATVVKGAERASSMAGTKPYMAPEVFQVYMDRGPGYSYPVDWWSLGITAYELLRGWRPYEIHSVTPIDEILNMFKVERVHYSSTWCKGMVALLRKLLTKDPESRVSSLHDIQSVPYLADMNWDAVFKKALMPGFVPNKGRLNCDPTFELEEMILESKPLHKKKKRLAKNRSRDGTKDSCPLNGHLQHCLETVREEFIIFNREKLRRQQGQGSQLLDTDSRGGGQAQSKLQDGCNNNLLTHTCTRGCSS

PAK4 = PAK4 (Homo sapiens (Human), UniProt O96013); experiment: Kinome-wide profiling; assay type: biochemical; conditions: read-out: % Residual Activity (mean)
PKG2/PRKG2 = PKG2/PRKG2 (Homo sapiens (Human), UniProt Q13237); experiment: Kinome-wide profiling; assay type: biochemical; conditions: read-out: % Residual Activity (mean)
NLK = NLK (Homo sapiens (Human), UniProt Q9UBE8); experiment: Kinome-wide profiling; assay type: biochemical; conditions: read-out: % Residual Activity (mean)
CDK9/cyclin T1 = CDK9/cyclin T1 (Homo sapiens (Human), UniProt P50750); experiment: Kinome-wide profiling; assay type: biochemical; conditions: read-out: % Residual Activity (mean)
MKK4 = MKK4 (Homo sapiens (Human), UniProt P45985); experiment: Kinome-wide profiling; assay type: biochemical; conditions: read-out: % Residual Activity (mean)
Sequence of MKK4 (P45985 whole entry): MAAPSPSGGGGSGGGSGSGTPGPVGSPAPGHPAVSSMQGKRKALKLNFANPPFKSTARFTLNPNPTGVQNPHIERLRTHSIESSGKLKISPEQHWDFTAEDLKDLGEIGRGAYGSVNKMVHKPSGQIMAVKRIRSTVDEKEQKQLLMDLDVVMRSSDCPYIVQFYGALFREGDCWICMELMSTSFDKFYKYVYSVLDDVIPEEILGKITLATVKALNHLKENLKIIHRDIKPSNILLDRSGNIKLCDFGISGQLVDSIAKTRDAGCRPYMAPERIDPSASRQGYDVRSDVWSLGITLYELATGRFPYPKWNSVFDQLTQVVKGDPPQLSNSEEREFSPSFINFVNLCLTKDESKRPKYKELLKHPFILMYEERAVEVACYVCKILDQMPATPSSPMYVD

HIPK2 = HIPK2 (Homo sapiens (Human), UniProt Q9H2X6); experiment: Kinome-wide profiling; assay type: biochemical; conditions: read-out: % Residual Activity (mean)
Sequence of HIPK2 (Q9H2X6 whole entry): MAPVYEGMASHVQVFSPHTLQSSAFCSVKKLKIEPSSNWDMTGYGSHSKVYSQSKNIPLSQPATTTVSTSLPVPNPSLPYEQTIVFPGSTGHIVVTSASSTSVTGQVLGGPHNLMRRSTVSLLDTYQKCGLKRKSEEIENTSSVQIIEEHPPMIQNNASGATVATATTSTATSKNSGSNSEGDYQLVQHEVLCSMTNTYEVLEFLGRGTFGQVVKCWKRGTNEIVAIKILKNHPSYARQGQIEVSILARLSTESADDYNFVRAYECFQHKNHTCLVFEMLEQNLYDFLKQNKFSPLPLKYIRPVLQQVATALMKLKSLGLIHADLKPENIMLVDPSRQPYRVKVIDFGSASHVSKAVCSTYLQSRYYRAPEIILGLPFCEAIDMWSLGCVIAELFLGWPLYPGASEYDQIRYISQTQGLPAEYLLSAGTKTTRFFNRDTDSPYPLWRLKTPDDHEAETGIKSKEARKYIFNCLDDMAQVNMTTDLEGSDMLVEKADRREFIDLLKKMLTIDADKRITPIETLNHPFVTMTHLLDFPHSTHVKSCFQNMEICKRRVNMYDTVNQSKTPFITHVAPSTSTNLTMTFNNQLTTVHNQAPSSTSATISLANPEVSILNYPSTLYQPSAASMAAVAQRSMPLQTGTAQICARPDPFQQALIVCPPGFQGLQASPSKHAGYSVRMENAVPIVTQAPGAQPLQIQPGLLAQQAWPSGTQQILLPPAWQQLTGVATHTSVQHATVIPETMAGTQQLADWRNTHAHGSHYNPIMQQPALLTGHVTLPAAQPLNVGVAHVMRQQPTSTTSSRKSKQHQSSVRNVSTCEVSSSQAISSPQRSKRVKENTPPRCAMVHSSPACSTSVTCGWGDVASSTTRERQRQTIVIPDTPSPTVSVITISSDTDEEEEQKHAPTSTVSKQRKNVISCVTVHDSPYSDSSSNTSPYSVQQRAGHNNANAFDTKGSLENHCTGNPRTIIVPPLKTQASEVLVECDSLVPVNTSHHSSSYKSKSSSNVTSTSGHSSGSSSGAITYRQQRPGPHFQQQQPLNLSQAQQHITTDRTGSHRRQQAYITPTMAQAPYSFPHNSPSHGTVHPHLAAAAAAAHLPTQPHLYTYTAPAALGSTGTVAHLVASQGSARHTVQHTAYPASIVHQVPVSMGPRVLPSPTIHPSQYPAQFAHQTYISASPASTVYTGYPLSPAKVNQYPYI

MELK = MELK (Homo sapiens (Human), UniProt Q14680); experiment: Kinome-wide profiling; assay type: biochemical; conditions: read-out: % Residual Activity (mean)
Sequence of MELK (Q14680 whole entry): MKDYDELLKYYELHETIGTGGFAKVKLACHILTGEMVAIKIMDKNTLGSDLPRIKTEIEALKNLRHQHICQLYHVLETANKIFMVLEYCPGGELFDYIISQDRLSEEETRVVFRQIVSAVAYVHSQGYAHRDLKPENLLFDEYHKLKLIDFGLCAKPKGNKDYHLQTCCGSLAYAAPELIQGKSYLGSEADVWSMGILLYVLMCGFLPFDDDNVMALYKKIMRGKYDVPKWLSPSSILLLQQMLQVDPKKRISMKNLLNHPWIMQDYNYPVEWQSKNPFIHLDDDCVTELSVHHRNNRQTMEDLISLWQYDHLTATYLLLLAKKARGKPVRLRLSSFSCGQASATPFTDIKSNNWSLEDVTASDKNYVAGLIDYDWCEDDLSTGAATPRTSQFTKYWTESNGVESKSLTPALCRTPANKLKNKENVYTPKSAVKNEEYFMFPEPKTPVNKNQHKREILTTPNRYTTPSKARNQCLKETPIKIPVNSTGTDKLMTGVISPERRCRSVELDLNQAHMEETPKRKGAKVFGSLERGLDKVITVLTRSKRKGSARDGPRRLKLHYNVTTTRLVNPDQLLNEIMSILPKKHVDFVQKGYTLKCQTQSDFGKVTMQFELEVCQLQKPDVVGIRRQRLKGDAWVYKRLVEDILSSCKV

STK39/STLK3 = STK39/STLK3 (Homo sapiens (Human), UniProt Q9UEW8); experiment: Kinome-wide profiling; assay type: biochemical; conditions: read-out: % Residual Activity (mean)
MKK7 = MKK7 (Homo sapiens (Human), UniProt O14733); experiment: Kinome-wide profiling; assay type: biochemical; conditions: read-out: % Residual Activity (mean)
EPHA7 = EPHA7 (Homo sapiens (Human), UniProt Q15375); experiment: Kinome-wide profiling; assay type: biochemical; conditions: read-out: % Residual Activity (mean)
Sequence of EPHA7 (Q15375 28-998): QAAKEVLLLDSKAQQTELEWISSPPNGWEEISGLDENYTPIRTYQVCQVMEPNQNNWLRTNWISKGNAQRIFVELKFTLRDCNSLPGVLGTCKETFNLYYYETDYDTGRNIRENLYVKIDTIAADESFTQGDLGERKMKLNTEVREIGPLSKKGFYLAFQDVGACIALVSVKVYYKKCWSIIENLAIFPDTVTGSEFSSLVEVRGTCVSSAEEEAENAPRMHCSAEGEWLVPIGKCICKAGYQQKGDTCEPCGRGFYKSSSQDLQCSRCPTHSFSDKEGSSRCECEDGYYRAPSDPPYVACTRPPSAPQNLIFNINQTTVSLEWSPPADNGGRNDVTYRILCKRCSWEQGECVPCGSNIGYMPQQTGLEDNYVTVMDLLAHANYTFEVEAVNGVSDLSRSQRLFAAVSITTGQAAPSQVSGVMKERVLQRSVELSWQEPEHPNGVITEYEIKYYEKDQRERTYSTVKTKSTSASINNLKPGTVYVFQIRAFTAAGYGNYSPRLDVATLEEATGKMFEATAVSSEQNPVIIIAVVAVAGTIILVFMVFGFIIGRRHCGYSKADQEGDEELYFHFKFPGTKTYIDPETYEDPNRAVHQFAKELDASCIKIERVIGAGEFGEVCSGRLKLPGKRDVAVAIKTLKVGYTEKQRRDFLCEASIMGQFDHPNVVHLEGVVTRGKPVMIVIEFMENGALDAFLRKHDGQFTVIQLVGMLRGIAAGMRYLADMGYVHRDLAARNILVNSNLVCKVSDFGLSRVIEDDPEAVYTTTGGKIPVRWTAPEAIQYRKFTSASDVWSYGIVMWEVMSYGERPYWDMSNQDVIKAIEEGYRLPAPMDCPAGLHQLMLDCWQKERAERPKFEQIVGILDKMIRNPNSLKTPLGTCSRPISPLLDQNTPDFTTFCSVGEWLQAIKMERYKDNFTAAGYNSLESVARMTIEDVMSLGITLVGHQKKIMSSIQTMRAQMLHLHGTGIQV

[1] = Liver microsomal metabolic stability; assay type: in vitro ADME
Experimental: 5 derivatives were evaluated for in vitro metabolic stability in liver microsomes from three different species (human, dog, mouse) and for inhibitory activity against 5 representative cytochrome P450 enzymes (CYPs)(Table 3). In terms of liver microsomal stability, the 2′-pyridyl group is more suitable than the α-methyl-4′-pyridyl group as the terminal aromatic group at position 6, and the aminopyrimidyl group is better than the aminopyridyl group as a substituent at position 2.

MAST3 = MAST3 (Homo sapiens (Human), UniProt O60307); experiment: Kinome-wide profiling; assay type: biochemical; conditions: read-out: % Residual Activity (mean)
Sequence of MAST3 (O60307 whole entry): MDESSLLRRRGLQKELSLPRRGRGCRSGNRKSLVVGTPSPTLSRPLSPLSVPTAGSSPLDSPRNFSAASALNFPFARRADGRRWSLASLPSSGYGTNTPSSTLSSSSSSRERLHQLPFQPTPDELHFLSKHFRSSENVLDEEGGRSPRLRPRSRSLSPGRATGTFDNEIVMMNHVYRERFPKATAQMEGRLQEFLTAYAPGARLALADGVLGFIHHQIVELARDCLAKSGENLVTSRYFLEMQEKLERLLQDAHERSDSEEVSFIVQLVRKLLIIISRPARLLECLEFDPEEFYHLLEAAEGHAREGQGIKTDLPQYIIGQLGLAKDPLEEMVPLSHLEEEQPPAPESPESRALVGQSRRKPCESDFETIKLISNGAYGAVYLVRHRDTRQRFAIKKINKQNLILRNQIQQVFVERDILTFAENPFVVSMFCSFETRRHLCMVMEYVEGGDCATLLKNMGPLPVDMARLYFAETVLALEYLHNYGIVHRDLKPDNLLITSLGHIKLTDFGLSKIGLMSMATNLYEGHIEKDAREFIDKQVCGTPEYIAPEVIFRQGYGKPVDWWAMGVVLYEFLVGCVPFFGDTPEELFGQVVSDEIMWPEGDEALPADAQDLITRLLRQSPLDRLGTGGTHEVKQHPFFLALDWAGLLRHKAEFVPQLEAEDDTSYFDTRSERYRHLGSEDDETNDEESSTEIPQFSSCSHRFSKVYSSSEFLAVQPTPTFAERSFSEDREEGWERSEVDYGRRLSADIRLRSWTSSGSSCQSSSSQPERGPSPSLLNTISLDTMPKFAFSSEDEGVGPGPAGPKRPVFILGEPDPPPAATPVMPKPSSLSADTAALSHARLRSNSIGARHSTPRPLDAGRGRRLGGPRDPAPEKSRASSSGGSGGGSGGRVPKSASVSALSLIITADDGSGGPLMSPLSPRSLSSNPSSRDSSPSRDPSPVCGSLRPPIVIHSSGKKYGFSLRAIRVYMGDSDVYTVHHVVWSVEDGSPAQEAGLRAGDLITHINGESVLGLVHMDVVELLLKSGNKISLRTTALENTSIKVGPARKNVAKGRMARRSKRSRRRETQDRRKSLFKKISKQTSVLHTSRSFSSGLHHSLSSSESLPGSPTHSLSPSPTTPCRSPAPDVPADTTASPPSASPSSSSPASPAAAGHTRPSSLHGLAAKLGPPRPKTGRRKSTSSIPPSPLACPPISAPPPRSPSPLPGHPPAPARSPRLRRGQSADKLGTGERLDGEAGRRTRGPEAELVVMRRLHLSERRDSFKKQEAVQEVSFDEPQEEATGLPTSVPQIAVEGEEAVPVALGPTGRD

PKCzeta = PKCzeta (Homo sapiens (Human), UniProt Q05513); experiment: Kinome-wide profiling; assay type: biochemical; conditions: read-out: % Residual Activity (mean)
JAK1 = JAK1 (Homo sapiens (Human), UniProt P23458); experiment: Kinome-wide profiling; assay type: biochemical; conditions: read-out: % Residual Activity (mean)
FMS = FMS (Homo sapiens (Human), UniProt P07333); experiment: Kinome-wide profiling; assay type: biochemical; conditions: read-out: % Residual Activity (mean)
PDGFRb = PDGFRb (Homo sapiens (Human), UniProt P09619); experiment: Kinome-wide profiling; assay type: biochemical; conditions: read-out: % Residual Activity (mean)
CDK12/CyclinK = CDK12/CyclinK (Homo sapiens (Human), UniProt Q9NYV4); experiment: CDK12/cyclinK enzyme activity; assay type: biochemical; conditions: in vitro
GLK/MAP4K3 = GLK/MAP4K3 (Homo sapiens (Human), UniProt Q8IVH8); experiment: Kinome-wide profiling; assay type: biochemical; conditions: read-out: % Residual Activity (mean)
FER = FER (Homo sapiens (Human), UniProt P16591); experiment: Kinome-wide profiling; assay type: biochemical; conditions: read-out: % Residual Activity (mean)
DAPK2 = DAPK2 (Homo sapiens (Human), UniProt Q9UIK4); experiment: Kinome-wide profiling; assay type: biochemical; conditions: read-out: % Residual Activity (mean)
KDR/VEGFR2 = KDR/VEGFR2 (Homo sapiens (Human), UniProt P35968); experiment: Kinome-wide profiling; assay type: biochemical; conditions: read-out: % Residual Activity (mean)
CK2a2 = CK2a2 (Homo sapiens (Human), UniProt P19784); experiment: Kinome-wide profiling; assay type: biochemical; conditions: read-out: % Residual Activity (mean)
PKD2/PRKD2 = PKD2/PRKD2 (Homo sapiens (Human), UniProt Q9BZL6); experiment: Kinome-wide profiling; assay type: biochemical; conditions: read-out: % Residual Activity (mean)
MARK2/PAR-1Ba = MARK2/PAR-1Ba (Homo sapiens, UniProt Q7KZI7); experiment: Kinome-wide profiling; assay type: biochemical; conditions: read-out: % Residual Activity (mean)
CDK2/cyclin O = CDK2/cyclin O (Homo sapiens (Human), UniProt P24941); experiment: Kinome-wide profiling; assay type: biochemical; conditions: read-out: % Residual Activity (mean)
SIK1 = SIK1 (Homo sapiens (Human), UniProt P57059); experiment: Kinome-wide profiling; assay type: biochemical; conditions: read-out: % Residual Activity (mean)
TAK1 = TAK1 (Homo sapiens (Human), UniProt O43318); experiment: Kinome-wide profiling; assay type: biochemical; conditions: read-out: % Residual Activity (mean)
MEKK3 = MEKK3 (Homo sapiens (Human), UniProt Q99759); experiment: Kinome-wide profiling; assay type: biochemical; conditions: read-out: % Residual Activity (mean)

CCn1cnc2c(NCc3ccc(-c4ccccn4)nc3)nc(-c3ccc(N)nc3)nc21 [Example 53, N-([2,2′-bipyridin]-5-ylmethyl)-2-(6-aminopyridin-3-yl)-9-ethyl-9H-purin-6-amine]
remaining activity at 10 µM (IGF1R): 58%
remaining activity at 10 µM (MLK2/MAP3K10): 62.3%
remaining activity at 10 µM (DMPK2): 92.4%
remaining activity at 10 µM (PKCa): 62.4%
remaining activity at 10 µM (NEK7): 93.2%
remaining activity at 10 µM (Aurora A): 33.4%
remaining activity at 10 µM (EPHA2): 42.3%
remaining activity at 10 µM (CK1g2): 27%
remaining activity at 10 µM (STK32B/YANK2): 57.6%
remaining activity at 10 µM (PAK4): 12.9%
remaining activity at 10 µM (PKG2/PRKG2): 99.5%
remaining activity at 10 µM (NLK): 24.8%
remaining activity at 10 µM (CDK9/cyclin T1): 0.78%
remaining activity at 10 µM (MKK4): 96.4%
remaining activity at 10 µM (HIPK2): 81.3%
remaining activity at 10 µM (MELK): 21.1%
remaining activity at 10 µM (STK39/STLK3): 29.6%
remaining activity at 10 µM (MKK7): 96.3%
remaining activity at 10 µM (EPHA7): 31.3%
Liver microsomal metabolic stability (% remaining amount) Dog ([1]; dog liver microsomes): 46.2%
Liver microsomal metabolic stability (% remaining amount) Human ([1]; human liver microsomes): 64.8%
Liver microsomal metabolic stability (% remaining amount) Mouse ([1]; mouse liver microsomes): 49.9%
remaining activity at 10 µM (MAST3): 39.3%
remaining activity at 10 µM (PKCzeta): 90.2%
remaining activity at 10 µM (JAK1): 92.1%
remaining activity at 10 µM (FMS): 35.4%
remaining activity at 10 µM (PDGFRb): 34.7%
IC50 (CDK12/CyclinK): 0.03 µM
remaining activity at 10 µM (GLK/MAP4K3): 49.6%
remaining activity at 10 µM (FER): 52.3%
remaining activity at 10 µM (DAPK2): 85.7%
remaining activity at 10 µM (KDR/VEGFR2): 88.6%
remaining activity at 10 µM (CK2a2): 91.3%
remaining activity at 10 µM (PKD2/PRKD2): 72.3%
remaining activity at 10 µM (MARK2/PAR-1Ba): 74.3%
remaining activity at 10 µM (CDK2/cyclin O): 0.54%
remaining activity at 10 µM (SIK1): 56.3%
remaining activity at 10 µM (TAK1): 98.2%
remaining activity at 10 µM (MEKK3): 94%

From patent publication US20250101023A1, “HETEROARYL DERIVATIVE AND USES THEREOF” (IUCF-HYU (INDUSTRY-UNIVERSITY COOPERATION FOUNDATION …, priority 2022, published 2025)
